Assay results from patent US8268751B2, “Combination of active substances with insecticidal properties” (Bayer Cropscience AG, priority 2003, dated 2012).

Columns and labels:
Assay type in all cases: in vivo
[1] = tested on: Myzus persicae; assay: Myzus persicae test (cabbage leaf dip)
Source text: (§1) The expected action for a given combination of two active compounds can be calculated as follows, according to S. R. Colby, Weeds 15 (1967), 20-22:
(§2) If • X is the kill rate, expressed as a percentage of the untreated control, when employing active compound A at an application rate of m g/ha or in a concentration of m ppm, • Y is the kill rate, expressed as a percentage of the untreated control, when employing active compound B at an application rate of n g/ha or in a concentration of n ppm and • E is the kill rate, expressed as a percentage of the untreated control, when employing active compounds A and B at application rates of m and n g/ha or in a concentration of m and n ppm, then
(§3) If the actual insecticidal kill rate exceeds the calculated value, the action of the combination is superadditive, i.e. a synergistic effect is present. In this case, the actually observed kill rate must exceed the value calculated using the above formula for the expected kill rate (E).
(§4) To produce a suitable preparation of active compound, 1 part by weight of active compound is mixed with the stated amounts of solvent and emulsifier, and the concentrate is diluted with emulsifier-containing water to the desired concentration.
Cabbage leaves (Brassica oleracea) which are heavily infested by the green peach aphid (Myzus persicae) are treated by being dipped into the preparation of active compound of the desired concentration.
After the desired period of time, the kill in % is determined. 100% means that all aphids have been killed; 0% means that none of the aphids have been killed. The kill rates determined are calculated using Colby's formula (see page 39).

[2] = tested on: Phaedon cochleariae larvae; assay: Phaedon cochleariae larvae test (cabbage leaf dip); conditions: Table B, 0.16 ppm
Source text: as §1, §2, §3
Phaedon cochleariae Larvae Test
To produce a suitable preparation of active compound, 1 part by weight of active compound is mixed with the stated amounts of solvent and emulsifier, and the concentrate is diluted with emulsifier-containing water to the desired concentration. […]
After the desired period of time, the kill in % is determined. […] The kill rates determined are calculated using Colby's formula (see page 39).

[3] = tested on: Plutella xylostella, resistant strain; assay: Plutella-xylostella test (resistant strain), cabbage leaf dip
Source text: as §1, §2, §3
Plutella-xylostella Test (Resistant Strain)
as §4
Cabbage leaves (Brassica oleracea) are treated by being dipped into the preparation of active compound of the desired concentration and are populated with caterpillars of the diamond back moth (Plutella xylostella, resistant strain), while the leaves are still moist.
After the desired period of time, the kill in % is determined. 100% means that all caterpillars have been killed; 0% means that none of the caterpillars have been killed. The kill rates determined are calculated using Colby's formula (see page 39).

[4] = tested on: Spodoptera frugiperda; assay: Spodoptera frugiperda test (cabbage leaf dip); conditions: Table D, 0.032 ppm
Source text: as §1, §2, §3
Spodoptera frugiperda Test […]
After the desired period of time, the kill in % is determined: 100% means that all caterpillars have been killed; 0% means that none of the caterpillars have been killed. The kill rates determined are calculated using Colby's formula (see page 39).

Row | Compound | Kill rate in % after 6 d, found ([1]; Table A1, 0.16 ppm) | Kill rate in % after 6 d, found ([1]; Table A1, 4 ppm) | Kill rate in % after 6 d, found ([1]; Table A2, 0.8 ppm) | Kill rate in % after 3 d, found [2] | Kill rate in % after 6 d, found ([3]; Table C1, 0.0064 ppm) | Kill rate in % after 6 d, found ([3]; Table C2, 0.0064 ppm) | Kill rate in % after 6 d, found [4] | Kill rate in % after 6 d, found ([1]; Table A2, 0.032 ppm)
1 | CC1(C)C(C=C(Br)Br)C1C(=O)OC(C#N)c1cccc(Oc2ccccc2)c1 (stereo not drawn) [(2-6) deltamethrin, deltamethrin] | 50% |  |  |  |  |  |  | 
2 | Cc1cc(Cl)cc(C(=O)NC(C)C)c1NC(=O)c1cc(C(F)(F)F)nn1-c1ncccc1Cl [Example I-1-9] |  | 15% | 0% | 0% | 0% | 10% | 75% | 
3 | CC1(C)C(C=C(Cl)Cl)C1C(=O)OC(C#N)c1ccc(F)c(Oc2ccccc2)c1 (stereo not drawn) [(2-3) betacyfluthrin, betacyfluthrin] |  |  |  | 15% | 0% |  | 0% | 
4 | CC1(C)C(/C=C(\Cl)C(F)(F)F)C1C(=O)OC(C#N)c1cccc(Oc2ccccc2)c1 (stereo not drawn) [(2-12) lambda-cyhalothrin, lambda-cyhalothrin] |  |  |  |  |  | 0% |  | 0%
